Assay [1] concerns genotype A, “Long” strain RSV. Kind of assay: RSV-A assay (CPE, ATPlite readout in Hep-2 cells). The assay is classed as cell-based, Human respiratory syncytial virus. Particulars: human respiratory syncytial virus, activity class. The procedure, abridged:
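Hep-2 cells (8,000/well) were treated with 2-fold serial compound dilutions in duplicate and infected with RSV at MOI 0.1. After 5 days, protection from cytopathic effect was measured as cell viability by ATPlite luminescence, and EC50 values were derived.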
A general note: In ATP-based viability assays light output follows the ATP content of the culture.

Assay [2] deals with HMPV clinical isolate A2 strain TN 94-49. Kind of assay: HMPV antiviral assay, Method 2 (LLC-MK2 cells with CP-100-356, ATP-Lite). The assay is classed as cell-based. Particulars: human metapneumovirus, 168 h; hMPV A2 TN/94-49, LLC-MK2 cells with 4 μM CP-100-356, 7 days, ATP-Lite. The procedure, abridged:
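EC50 comes from a four-parameter fit of percent cell viability (ATP-Lite, normalized to virus-only and cell-only wells) after 7 days at 37 °C. Infection used HMPV A2 TN 94-49 at MOI 0.16 in LLC-MK2 cells, with 2 μM P-gp inhibitor CP-100-356 and 2 μg/mL TPCK-trypsin final; dose range 200 nM top, 2.5-fold, 10 points, duplicate.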

As to `COc1cc(C(=O)NC[C@](O)(c2cc3c(c(-c4ccnc(C(F)(F)F)c4Cl)n2)OC[C@]3(C)C(N)=O)C2CC2)cc2cn(C(F)F)nc12` [Example 758], the EC50 in assay [1] and in assay [2] was less than 200 nM in each case.
For `COc1cc(C(=O)NC[C@](O)(c2cc3c(c(-c4ccnc(C(F)(F)F)c4Cl)n2)OC[C@]3(C)C(N)=O)C2CC2)cc2cn(C3(F)CC3)nc12` [Example 760], the EC50 in assay [1] and in assay [2] was less than 200 nM in each case.
On to `COc1cc(C(=O)NC[C@](O)(c2cc3c(c(-c4ccnc(C(F)(F)F)c4Cl)n2)OC[C@]3(C)C(N)=O)C2CC2)cc2oc(C3CC3)nc12` [Example 762], for which the concentration giving a half-maximal response (EC50) in assay [1] and in assay [2] was less than 200 nM each time.
Consider `COc1cc(C(=O)NC[C@](O)(c2cc3c(c(-n4ccc5c(F)cccc54)n2)OC[C@]3(C)C(N)=O)C2CC2)cc2cn(C(F)F)nc12` [Example 776], for which the EC50 in assay [1] and in assay [2] was less than 200 nM each time.
`COc1cc(C(=O)NC[C@](O)(c2cc3c(c(-n4ccc5c(F)cccc54)n2)OC[C@]3(C)C(N)=O)C2CC2)cc2cn(C3(F)CC3)nc12` [Example 777]: the EC50 in assay [1] and in assay [2] was less than 200 nM in each case.
With `COc1cc(C(=O)NC[C@](O)(c2cc3c(c(-n4ccc5c(F)cccc54)n2)OC[C@]3(C)C(N)=O)C2CC2)cc2oc(C3CC3)nc12` [Example 778], the EC50 in assay [1] and in assay [2] was less than 200 nM each time.
On to `COc1cc(C(=O)NC[C@](O)(c2cc3c(c(-c4ccnc(C(F)F)c4Cl)n2)OC[C@]3(C)C(N)=O)C2CC2)cc2cn(C3CC3)nc12` [Example 780], for which the EC50 in assay [1] and in assay [2] was less than 200 nM each time.
In the case of `COc1cc(C(=O)NC[C@](O)(c2cc3c(c(-c4ccnc(C(F)(F)F)c4Cl)n2)OC[C@]3(C)C(N)=O)C(F)(F)F)cc2cn(C3CC3)nc12` [Example 783], the EC50 in assay [1] and in assay [2] was less than 200 nM throughout.
With `COc1cc(C(=O)NC[C@](O)(c2cc3c(c(-c4ccnc(C(F)F)c4Cl)n2)OC[C@]3(C)C(N)=O)C2CC2)cc2cn(C(F)F)nc12` [Example 785], the EC50 in assay [1] and in assay [2] was less than 200 nM each time.
For the compound `COc1cc(C(=O)NC[C@](O)(c2cc3c(c(-c4ccnc(C(F)F)c4Cl)n2)OC[C@]3(C)C(N)=O)C2CC2)cc2cn(C3(F)CC3)nc12` [Example 786], the EC50 in assay [1] and in assay [2] was less than 200 nM each time.
As to `COc1cc(C(=O)NC[C@](O)(c2cc3c(c(-c4ccnc(C(F)F)c4Cl)n2)OC[C@]3(C)C(N)=O)C2CC2)cc2oc(C3CC3)nc12` [Example 787], the EC50 in assay [1] and in assay [2] was less than 200 nM in each case.
For the compound `COc1nccc(-c2nc([C@@](O)(CNC(=O)c3cc(OC)c4nn(C(F)F)cc4c3)C3CC3)cc3c2OC[C@]3(C)C(N)=O)c1Cl` [Example 788], the EC50 in assay [1] and in assay [2] was less than 200 nM throughout.
In the case of `COc1nccc(-c2nc([C@@](O)(CNC(=O)c3cc(OC)c4nn(C5(F)CC5)cc4c3)C3CC3)cc3c2OC[C@]3(C)C(N)=O)c1Cl` [Example 789], the EC50 in assay [1] and in assay [2] was less than 200 nM in each case.
Turning to `COc1cc(C(=O)NC[C@](O)(c2cc3c(c(-c4ccnc(C(F)(F)F)c4F)n2)OC[C@]3(C)C(N)=O)C2CC2)cc2cn(C3CC3)nc12` [Example 794], the EC50 in assay [1] and in assay [2] was less than 200 nM throughout.
Take `COc1cc(C(=O)NC[C@](O)(c2cc3c(c(-c4ccnc(C(F)F)c4Cl)n2)OC[C@]3(C)C(N)=O)C(F)(F)F)cc2cn(C3CC3)nc12` [Example 795]: the EC50 in assay [1] and in assay [2] was less than 200 nM in each case.
As for `COc1nccc(-c2nc([C@@](O)(CNC(=O)c3cc(OC)c4nn(C5CC5)cc4c3)C(F)(F)F)cc3c2OC[C@]3(C)C(N)=O)c1Cl` [Example 796], the EC50 in assay [1] and in assay [2] was less than 200 nM in each case.
As for `COc1cc(C(=O)NC[C@](O)(c2cc3c(c(-c4ccnc(C(F)(F)F)c4F)n2)OC[C@]3(C)C(N)=O)C2CC2)cc2cn(C3(F)CC3)nc12` [Example 800], the EC50 in assay [1] and in assay [2] was less than 200 nM in each case.

The values are drawn from patent US20240368174A1, “Antiviral Heterocyclic Compounds” (Enanta Pharmaceuticals, Inc., priority 2023, published 2024).
